Bounds are passed on as bounds.

T1 sequence (Q13557 1-478 isoform Q13557-12): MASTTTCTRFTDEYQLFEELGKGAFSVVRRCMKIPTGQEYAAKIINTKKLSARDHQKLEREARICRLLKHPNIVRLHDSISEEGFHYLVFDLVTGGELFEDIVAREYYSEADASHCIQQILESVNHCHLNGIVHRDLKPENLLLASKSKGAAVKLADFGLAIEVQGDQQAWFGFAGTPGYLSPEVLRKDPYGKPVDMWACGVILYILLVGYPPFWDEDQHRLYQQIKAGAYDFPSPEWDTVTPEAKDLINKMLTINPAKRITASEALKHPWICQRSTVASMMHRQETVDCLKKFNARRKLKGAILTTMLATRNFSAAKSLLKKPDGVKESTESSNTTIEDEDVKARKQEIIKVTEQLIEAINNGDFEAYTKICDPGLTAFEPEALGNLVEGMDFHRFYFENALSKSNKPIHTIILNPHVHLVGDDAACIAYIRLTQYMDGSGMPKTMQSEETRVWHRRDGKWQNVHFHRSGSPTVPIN

The experiment addresses T1, Full-length, GST-tagged, human CaMKIIδ (Homo sapiens, UniProt Q13557).
T1 construct: Full-Length, Glutathione-S-Transferase(GST)-Tagged, Human CaMKIIδ was purchased from Carna Biosciences; purchased Carna Biosciences 02-111
As to the kind of experiment: CaMKIIδ binding assay (TR-FRET with BODIPY-labeled probe ligand). The following applies: CaMKIIδ binding assay; activity class per Table 2. A digest of the protocol: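 Compounds were tested as 4-fold, eight-point series for 1 hr at room temperature, and IC50 was obtained by logistic fitting against a 3 μM parent-compound control. Signal came from displacement of a 300 nM BODIPY ligand from 0.5 nM GST-CaMKIIδ, detected via Tb-anti-GST in calmodulin/Ca2+ (pH 7.6).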
On the technique in general: Time-resolved FRET reads energy transfer from a long-lived donor to a nearby acceptor.
The IC50 is the concentration at which inhibition is half-maximal. Higher therefore signals weaker potency in that assay. With `CCOC(=O)C(C)(C)n1cc(Nc2ncc(-c3ccc(Cl)c(O[C@@H](C)Cn4cnnn4)c3)cn2)c(OCC(F)(F)F)n1` [Example 885, ethyl (S)-2-(4-((5-(3-((1-(1H-tetrazol-1-yl)propan-2-yl)oxy)-4-chlorophenyl)pyrimidin-2-yl)amino)-3-(2,2,2-trifluoroethoxy)-1H-pyrazol-1-yl)-2-methylpropanoate], the IC50 was < 0.01 µM.

As for `C[C@@H](Cn1cnnn1)Oc1cc(-c2cnc(Nc3cn(CC4(O)CCOCC4)nc3OCC(F)(F)F)nc2)ccc1Cl` [Example 886, (S)-4-((4-((5-(3-((1-(1H-tetrazol-1-yl)propan-2-yl)oxy)-4-chlorophenyl)pyrimidin-2-yl)amino)-3-(2,2,2-trifluoroethoxy)-1H-pyrazol-1-yl)methyl)tetrahydro-2H-pyran-4-ol], the IC50 is < 0.01 µM.

The compound `C[C@@H](Cn1cnnn1)Oc1cc(-c2cnc(Nc3cn(CCNC(N)=O)nc3C(F)(F)F)nc2)ccc1Cl` [Example 887, (S)-1-(2-(4-((5-(3-((1-(1H-tetrazol-1-yl)propan-2-yl)oxy)-4-chlorophenyl)pyrimidin-2-yl)amino)-3-(trifluoromethyl)-1H-pyrazol-1-yl)ethyl)urea] yielded an IC50 of 0.01 to 0.1 µM.

On to `C[C@@H](Cn1cnnn1)Oc1cc(-c2cnc(Nc3cn(CC4(O)CCN(C(N)=O)CC4)nc3C(F)(F)F)nc2)ccc1Cl` [Example 888, (S)-4-((4-((5-(3-((1-(1H-tetrazol-1-yl)propan-2-yl)oxy)-4-chlorophenyl)pyrimidin-2-yl)amino)-3-(trifluoromethyl)-1H-pyrazol-1-yl)methyl)-4-hydroxypiperidine-1-carboxamide], for which the IC50 was < 0.01 µM.

In the case of `C[C@@H](Cn1cnnn1)Oc1cc(-c2cnc(Nc3cn(C(C)(C)C(=O)O)nc3OCC(F)(F)F)nc2)ccc1Cl` [Example 889, (S)-2-(4-((5-(3-((1-(1H-tetrazol-1-yl)propan-2-yl)oxy)-4-chlorophenyl)pyrimidin-2-yl)amino)-3-(2,2,2-trifluoroethoxy)-1H-pyrazol-1-yl)-2-methylpropanoic acid], the IC50 was in the range of 0.01 to 0.1 µM.

Turning to `C[C@@H](Cn1cnnn1)Oc1cc(-c2cnc(Nc3cn(-c4cn[nH]c4)nc3C(F)(F)F)nc2)ccc1Cl` [Example 890, (S)-N-(5-(3-((1-(1H-tetrazol-1-yl)propan-2-yl)oxy)-4-chlorophenyl)pyrimidin-2-yl)-3-(trifluoromethyl)-1′H-[1,4′-bipyrazol]-4-amine], the IC50 lay within 0.01 to 0.1 µM.

Turning to `C[C@@H](Cn1cnnn1)Oc1cc(-c2cnc(Nc3cn(CC4(O)CCN(C)CC4)nc3C(F)(F)F)nc2)ccc1Cl` [Example 891, (S)-4-((4-((5-(3-((1-(1H-tetrazol-1-yl)propan-2-yl)oxy)-4-chlorophenyl)pyrimidin-2-yl)amino)-3-(trifluoromethyl)-1H-pyrazol-1-yl)methyl)-1-methylpiperidin-4-ol], the IC50 is < 0.01 µM.

On to `C[C@H](Cn1cnnn1)Oc1cc(-c2cnc(Nc3cn([C@H]4CC[C@H](N5CCOCC5)CC4)nc3C(F)(F)F)nc2)ccc1Cl` [Example 893, 5-(3-(((R)-1-(1H-tetrazol-1-yl)propan-2-yl)oxy)-4-chlorophenyl)-N-(1-(trans-4-morpholinocyclohexyl)-3-(trifluoromethyl)-1H-pyrazol-4-yl)pyrimidin-2-amine], for which the IC50 is 0.01 to 0.1 µM.

For the compound `C[C@@H](Cn1cnnn1)Oc1cc(-c2cnc(Nc3cn(C(C)(C)C(N)=O)nc3OCC(F)(F)F)nc2)ccc1Cl` [Example 894, (S)-2-(4-((5-(3-((1-(1H-tetrazol-1-yl)propan-2-yl)oxy)-4-chlorophenyl)pyrimidin-2-yl)amino)-3-(2,2,2-trifluoroethoxy)-1H-pyrazol-1-yl)-2-methylpropanamide], the IC50 is < 0.01 µM.

In turn, `C[C@@H](Cn1cnnn1)Oc1cc(-c2cnc(Nc3cn(C(C)(C)C(=O)N4CCOCC4)nc3OCC(F)(F)F)nc2)ccc1Cl` [Example 895, (S)-2-(4-((5-(3-((1-(1H-tetrazol-1-yl)propan-2-yl)oxy)-4-chlorophenyl)pyrimidin-2-yl)amino)-3-(2,2,2-trifluoroethoxy)-1H-pyrazol-1-yl)-2-methyl-1-morpholinopropan-1-one] showed an IC50 of 0.01 to 0.1 µM.

For `C[C@H](Cn1cnnn1)Oc1cc(-c2cnc(Nc3cn([C@H]4CC[C@@H](N5CCOCC5)CC4)nc3C(F)(F)F)nc2)ccc1Cl` [Example 896, 5-(3-(((R)-1-(1H-tetrazol-1-yl)propan-2-yl)oxy)-4-chlorophenyl)-N-(1-(cis-4-morpholinocyclohexyl)-3-(trifluoromethyl)-1H-pyrazol-4-yl)pyrimidin-2-amine], the IC50 is ≥ 0.1 µM.

As for `C[C@@H](Cn1cnnn1)Oc1cc(-c2cnc(Nc3cn(CC4(O)CCC5(CC4)OCCO5)nc3OCC(F)(F)F)nc2)ccc1Cl` [Example 899, (S)-8-((4-((5-(3-((1-(1H-tetrazol-1-yl)propan-2-yl)oxy)-4-chlorophenyl)pyrimidin-2-yl)amino)-3-(2,2,2-trifluoroethoxy)-1H-pyrazol-1-yl)methyl)-1,4-dioxaspiro[4.5]decan-8-ol], the IC50 is < 0.01 µM.

`C[C@@H](CN1CCCC1=O)Oc1cc(-c2cnc(Nc3cn([C@H]4CC[C@H](N5CCOCC5)CC4)nc3C(F)(F)F)nc2)ccc1C#N` [Example 900, 4-(2-((1-(trans-4-morpholinocyclohexyl)-3-(trifluoromethyl)-1H-pyrazol-4-yl)amino)pyrimidin-5-yl)-2-(((S)-1-(2-oxopyrrolidin-1-yl)propan-2-yl)oxy)benzonitrile] came in with an IC50 of 0.01 to 0.1 µM.

Compound `COc1ccc(-n2cc(Nc3ncc(-c4ccc(Cl)c(O[C@@H](C)Cn5cnnn5)c4)cn3)c(OCC(F)(F)F)n2)cn1` [Example 901, (S)-5-(3-((1-(1H-tetrazol-1-yl)propan-2-yl)oxy)-4-chlorophenyl)-N-(1-(6-methoxypyridin-3-yl)-3-(2,2,2-trifluoroethoxy)-1H-pyrazol-4-yl)pyrimidin-2-amine] returned an IC50 of 0.01 to 0.1 µM.

With `C[C@@H](Cn1cnnn1)Oc1cc(-c2cnc(Nc3cn(-c4ccc(=O)[nH]c4)nc3OCC(F)(F)F)nc2)ccc1Cl` [Example 902, (S)-5-(4-((5-(3-((1-(1H-tetrazol-1-yl)propan-2-yl)oxy)-4-chlorophenyl)pyrimidin-2-yl)amino)-3-(2,2,2-trifluoroethoxy)-1H-pyrazol-1-yl)pyridin-2(1H)-one], the IC50 is < 0.01 µM.

In the case of `C[C@@H](Cn1cnnn1)Oc1cc(-c2cnc(Nc3cn(CC4(O)CCC(=O)CC4)nc3OCC(F)(F)F)nc2)ccc1Cl` [Example 903, (S)-4-((4-((5-(3-((1-(1H-tetrazol-1-yl)propan-2-yl)oxy)-4-chlorophenyl)pyrimidin-2-yl)amino)-3-(2,2,2-trifluoroethoxy)-1H-pyrazol-1-yl)methyl)-4-hydroxycyclohexan-1-one], the IC50 was < 0.01 µM.

Regarding `C[C@@H](Cn1cnnn1)Oc1cc(-c2cnc(Nc3cn(CC4(O)CCN(C5CCOCC5)CC4)nc3C(F)(F)F)nc2)ccc1Cl` [Example 905, (S)-4-((4-((5-(3-((1-(1H-tetrazol-1-yl)propan-2-yl)oxy)-4-chlorophenyl)pyrimidin-2-yl)amino)-3-(trifluoromethyl)-1H-pyrazol-1-yl)methyl)-1-(tetrahydro-2H-pyran-4-yl)piperidin-4-ol], the concentration for half-maximal inhibition (IC50) is < 0.01 µM.

Take `C[C@@H](Cn1cnnn1)Oc1cc(-c2cnc(Nc3cn(C[C@]4(O)CC[C@H](O)CC4)nc3OCC(F)(F)F)nc2)ccc1Cl` [Example 906, trans-1-((4-((5-(3-(((S)-1-(1H-tetrazol-1-yl)propan-2-yl)oxy)-4-chlorophenyl)pyrimidin-2-yl)amino)-3-(2,2,2-trifluoroethoxy)-1H-pyrazol-1-yl)methyl)cyclohexane-1,4-diol]: the IC50 is < 0.01 µM.

Take `CC(Cn1cnnn1)Oc1cc(-c2cnc(Nc3cn(CC4(O)CCC(O)CC4)nc3OCC(F)(F)F)nc2)ccc1Cl` [Example 907, cis-1-((4-((5-(3-(((S)-1-(1H-tetrazol-1-yl)propan-2-yl)oxy)-4-chlorophenyl)pyrimidin-2-yl)amino)-3-(2,2,2-trifluoroethoxy)-1H-pyrazol-1-yl)methyl)cyclohexane-1,4-diol]: the IC50 is < 0.01 µM.

Turning to `C[C@@H](Cn1cnnn1)Oc1cc(-c2cnc(Nc3cn(CC4(O)CCN(C5CCC5)CC4)nc3OCC(F)(F)F)nc2)ccc1Cl` [Example 908, (S)-4-((4-((5-(3-((1-(1H-tetrazol-1-yl)propan-2-yl)oxy)-4-chlorophenyl)pyrimidin-2-yl)amino)-3-(2,2,2-trifluoroethoxy)-1H-pyrazol-1-yl)methyl)-1-cyclobutylpiperidin-4-ol], the IC50 is < 0.01 µM.

As for `C[C@@H](Cn1cnnn1)Oc1cc(-c2cnc(Nc3cn(CC4(O)CCN(C5CCOCC5)CC4)nc3OCC(F)(F)F)nc2)ccc1Cl` [Example 909, (S)-4-((4-((5-(3-((1-(1H-tetrazol-1-yl)propan-2-yl)oxy)-4-chlorophenyl)pyrimidin-2-yl)amino)-3-(2,2,2-trifluoroethoxy)-1H-pyrazol-1-yl)methyl)-1-(tetrahydro-2H-pyran-4-yl)piperidin-4-ol], the IC50 was < 0.01 µM.

`C[C@@H](Cn1cnnn1)Oc1cc(-c2cnc(Nc3cn(CC4(O)CCN(C)CC4)nc3OCC(F)(F)F)nc2)ccc1Cl` [Example 910, (S)-4-((4-((5-(3-((1-(1H-tetrazol-1-yl)propan-2-yl)oxy)-4-chlorophenyl)pyrimidin-2-yl)amino)-3-(2,2,2-trifluoroethoxy)-1H-pyrazol-1-yl)methyl)-1-methylpiperidin-4-ol]: the IC50 is < 0.01 µM.

Take `CC(Cn1cnnn1)Oc1cc(-c2cnc(Nc3cn(CC4(O)CCC(N5CCOCC5)CC4)nc3OCC(F)(F)F)nc2)ccc1Cl` [Example 911, trans-1-((4-((5-(3-(((S)-1-(1H-tetrazol-1-yl)propan-2-yl)oxy)-4-chlorophenyl)pyrimidin-2-yl)amino)-3-(2,2,2-trifluoroethoxy)-1H-pyrazol-1-yl)methyl)-4-morpholinocyclohexan-1-ol]: the IC50 was < 0.01 µM.

The values above are taken from patent publication US10543212B2, “Substituted amines for treating cardiac diseases” (Cardurion Pharmaceuticals, LLC, priority 2017, dated 2020).
